Measured values reported in patent US10449168B2 (The University of Toledo, priority 2015, dated 2019).
“Also recorded” adds a separate entry of the source.

How the values were obtained:
Assay type in all cases: biochemical
[1] = biological target: Streptococcus pneumoniae aspartate semialdehyde dehydrogenase (spASADH) (Streptococcus pneumoniae, UniProt Q8DQ00); assay: biochemical; conditions: for inhibition / binding affinity for spASADH (in words): relative to parent or neighbouring derivative; for Ki: competitive vs ASA, 0.15 mM ASA, pH 8.6, read-out: Ki for spASADH
[2] = biological target: T1, Vibrio cholerae aspartate semialdehyde dehydrogenase (vcASADH) (Vibrio cholerae serotype O1, UniProt P23247); assay: biochemical; conditions: for inhibition / binding affinity for vcASADH (in words): relative to parent or neighbouring derivative
T1 construct: made in house
T1 sequence (P23247 whole entry): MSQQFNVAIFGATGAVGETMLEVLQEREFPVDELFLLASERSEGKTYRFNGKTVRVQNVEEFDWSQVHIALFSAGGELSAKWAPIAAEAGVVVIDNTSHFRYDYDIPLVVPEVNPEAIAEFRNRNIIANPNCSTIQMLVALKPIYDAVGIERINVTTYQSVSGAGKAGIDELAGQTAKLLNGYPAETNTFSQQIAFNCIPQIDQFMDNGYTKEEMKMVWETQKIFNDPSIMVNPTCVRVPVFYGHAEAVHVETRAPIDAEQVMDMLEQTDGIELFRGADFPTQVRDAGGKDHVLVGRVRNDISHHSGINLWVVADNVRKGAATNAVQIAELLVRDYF

[3] = biological target: T2, Streptococcus pneumoniae aspartate semialdehyde dehydrogenase (spASADH) (Streptococcus pneumoniae, UniProt Q8DQ00); assay: spASADH kinetic assay: reverse direction, NADPH absorbance at 340 nm; Ki from Dixon plot assuming competitive inhibition against ASA; conditions: pH 8.6, r.t., 0.15 mM ASA, 1.5 mM NADP, 20 mM phosphate
T2 construct: homodimer from general knowledge
T2 sequence (Q8DQ00 1-358): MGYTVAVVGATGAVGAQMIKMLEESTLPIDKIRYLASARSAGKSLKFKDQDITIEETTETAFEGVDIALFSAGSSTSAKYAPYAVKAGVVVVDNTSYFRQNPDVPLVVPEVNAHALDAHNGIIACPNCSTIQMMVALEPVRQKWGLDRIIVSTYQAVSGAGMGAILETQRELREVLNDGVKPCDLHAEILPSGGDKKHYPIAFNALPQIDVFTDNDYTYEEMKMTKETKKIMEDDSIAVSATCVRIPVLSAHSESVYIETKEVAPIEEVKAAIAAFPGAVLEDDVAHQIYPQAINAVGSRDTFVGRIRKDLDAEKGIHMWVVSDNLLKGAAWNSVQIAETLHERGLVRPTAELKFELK

[4] = biological target: Vibrio cholerae aspartate semialdehyde dehydrogenase (vcASADH); assay: vcASADH kinetic assay: reverse direction, NADPH absorbance at 340 nm; Ki from Dixon plot assuming competitive inhibition against ASA; conditions: pH 8.6, r.t., 0.3 mM ASA, 1.5 mM NADP, 20 mM phosphate
[5] = biological target: T3, aspartate N-acetyltransferase (ANAT) (Homo sapiens, UniProt Q8N9F0); assay: ANAT substrate selectivity (acetyl group acceptor); conditions: glutamate vs. aspartate as acetyl acceptor
T3 sequence (Q8N9F0 1-302): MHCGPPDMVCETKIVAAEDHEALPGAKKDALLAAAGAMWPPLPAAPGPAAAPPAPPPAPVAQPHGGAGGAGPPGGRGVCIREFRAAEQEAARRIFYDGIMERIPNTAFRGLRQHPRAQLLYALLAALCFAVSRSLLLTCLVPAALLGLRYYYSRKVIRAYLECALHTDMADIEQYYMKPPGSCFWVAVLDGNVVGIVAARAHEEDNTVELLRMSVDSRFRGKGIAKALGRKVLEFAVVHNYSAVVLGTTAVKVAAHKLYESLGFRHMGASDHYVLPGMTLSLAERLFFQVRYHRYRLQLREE
From the text: ANAT is difficult to purify.

In the case of `O=C(O)CN(Cc1ccc(C(=O)O)c(C(=O)O)c1)Cc1ccccc1OC(F)(F)F` [Compound 27, N-(2-trifluoromethyoxybenzyl)-N-carboxymethyl-3,4-dicarboxybenzylamine], the “inhibition / binding affinity for spASADH (in words)” value [1] is reported as “did not alter the affinity”, the “inhibition / binding affinity for vcASADH (in words)” value [2] is reported as “did not alter the affinity” and the Ki ([3]; FIG. 5, Table 2) is reported as 540 ± 32 µM. It also gave a Ki ([4]; FIG. 5, Table 2) of 708 ± 47 µM.
`Cc1ccc(CN(CC(=O)O)Cc2ccc(C(=O)O)c(C(=O)O)c2)cc1` [Compound 23, N-(4-methylbenzyl)-N-carboxymethyl-3,4-dicarboxybenzylamine] was tested, and the “inhibition / binding affinity for vcASADH (in words)” value [2] was “did not show any improved affinity”, the Ki ([3]; FIG. 5, Table 2) was 63 ± 7 µM and the Ki ([4]; FIG. 5, Table 2) was 608 ± 42 µM.
`O=C(O)CN(Cc1cccc(C(F)(F)F)c1)Cc1ccc(C(=O)O)c(C(=O)O)c1` [Compound 25, N-(3-trifluoromethylbenzyl)-N-carboxymethyl-3,4-dicarboxybenzylamine] was tested, and the “inhibition / binding affinity for spASADH (in words)” value [1] was “did not alter the affinity”, the “inhibition / binding affinity for vcASADH (in words)” value [2] was “did not alter the affinity” and the Ki ([3]; FIG. 5, Table 2) was 441 ± 27 µM. For the same compound, the Ki ([4]; FIG. 5, Table 2) was 678 ± 36 µM.
For `O=C(O)c1ccc(CN[C@@H](CO)C(=O)O)cc1C(=O)O` [Compound 6, N-((2-hydroxymethyl)carboxymethyl)-3,4-dicarboxybenzylamine], the “inhibition / binding affinity for spASADH (in words)” value [1] was “no appreciable effect on the binding affinity; also recorded: did not lead to enhanced affinity”, the “inhibition / binding affinity for vcASADH (in words)” value [2] was “no appreciable effect on the binding affinity” and the Ki ([3]; FIG. 4, Table 1) was 324 ± 24 µM. For the same compound, the Ki ([4]; FIG. 4, Table 1) was 654 ± 22 µM.
In the case of `N[C@@H](CCC(=O)O)C(=O)O` [glutamate], the “catalytic efficiency relative to that of the physiological substrate” value [5] is reported as “less than 1%”.
In the case of `O=C(O)CN(Cc1ccc(C(=O)O)c(C(=O)O)c1)Cc1ccccc1C(F)(F)F` [Compound 24, N-(2-trifluoromethylbenzyl)-N-carboxymethyl-3,4-dicarboxybenzylamine], the “inhibition / binding affinity for spASADH (in words)” value [1] is reported as “did not alter the affinity”, the “inhibition / binding affinity for vcASADH (in words)” value [2] is reported as “did not alter the affinity” and the Ki ([3]; FIG. 5, Table 2) is reported as 509 ± 29 µM. The Ki ([4]; FIG. 5, Table 2) was 727 ± 60 µM.
In the case of `O=C(O)CNCc1ccc(C(=O)O)c(C(=O)O)c1` [Compound 3, N-carboxymethyl-3,4-dicarboxybenzylamine], the “inhibition / binding affinity for spASADH (in words)” value [1] is reported as “two-fold stronger inhibitor; also recorded: high millimolar inhibitor”, the Ki [2] is reported as 500 µM and the “inhibition / binding affinity for vcASADH (in words)” value [2] is reported as “high millimolar inhibitor”. For the same compound, the Ki ([3]; FIG. 4, Table 1) was 246 ± 20 µM.
With `C[C@H](NCc1ccc(C(=O)O)c(C(=O)O)c1)C(=O)O` [Compound 5, N-((2-methyl)carboxymethyl)-3,4-dicarboxybenzylamine] the “inhibition / binding affinity for spASADH (in words)” value [1] was “no appreciable effect on the binding affinity; also recorded: did not lead to enhanced affinity”, the “inhibition / binding affinity for vcASADH (in words)” value [2] was “no appreciable effect on the binding affinity” and the Ki ([3]; FIG. 4, Table 1) was 296 ± 26 µM. The Ki ([4]; FIG. 4, Table 1) was 609 ± 23 µM.
With `CN(CC(=O)O)Cc1cccc(C(=O)O)c1C(=O)O` [Compound 9, N-methyl, N-carboxymethyl-2,3-dicarboxybenzylamine] the Ki [1] was 1800 µM and the “inhibition / binding affinity for vcASADH (in words)” value [2] was “no inhibition”.
With `O=C(O)CN(Cc1cccc(OC(F)(F)F)c1)Cc1ccc(C(=O)O)c(C(=O)O)c1` [Compound 28, N-(3-trifluoromethoxybenzyl)-N-carboxymethyl-3,4-dicarboxybenzylamine] the “inhibition / binding affinity for spASADH (in words)” value [1] was “did not alter the affinity”, the “inhibition / binding affinity for vcASADH (in words)” value [2] was “did not alter the affinity” and the Ki ([3]; FIG. 5, Table 2) was 427 ± 31 µM. The Ki ([4]; FIG. 5, Table 2) was 684 ± 35 µM.
In the case of `O=C(O)CCNCc1ccc(C(=O)O)c(C(=O)O)c1` [Compound 4, N-carboxyethyl-3,4-dicarboxybenzylamine], the Ki [1] is reported as 2400 µM, the “inhibition / binding affinity for spASADH (in words)” value [1] is reported as “substantial affinity loss” and the “inhibition / binding affinity for vcASADH (in words)” value [2] is reported as “did not show appreciable inhibition”.
